Measurements reported in article PMC9256669, “Monomethyl auristatin antibody and peptide drug conjugates for trimodal cancer chemo-radio-immunotherapy” (Nature Communications, 2022).
pIC50: −log10 of the molar value. Several values for one entry are separate records, joined by “and”; a condition that tells them apart may be missing. Equal values may be shown once. Entries after “also recorded” stand apart in the source; their conditions may differ. Non-standard residues stand in square brackets, D forms with d. Residues, ends and D or L forms follow the SMILES beside them. *: point of attachment. Dolaproine = CO[C@@H]([C@@H]1CCCN1)[C@@H](C)C(=O)O; Dil = CC[C@H](C)[C@H](NC)[C@@H](CC(=O)O)OC; X1 = C[C@@H](N*)[C@@H](O)c1ccccc1; NMeV = CN[C@H](C(=O)O)C(C)C

What was measured:
[1] = tested on: MOC1; experiment: Cytotoxicity, Alamar Blue assay; assay type: cell-based, murine; settings: for sensitivity in cell culture, Alamar Blue assay: MOC1 and MOC2 cells, cell viability at 72 hr of drug exposure, CDX3379 at nM dosing
Protocol: Murine colorectal (MC38 (ENH204-FP)) cancer cell lines were obtained from Kerafast. Murine head and neck MOC1 and MOC2 were generously provided by Dr. R. Uppaluri. CAL27 PIK3CA H1047R expressing cells and 4MOSC1 cells were generated in Dr. Gutkind’s laboratory and previously characterized[42],[55]. […] MC38 cells were cultured in DMEM supplemented with 10% FBS, 1 mM sodium pyruvate (Gibco), 1% non-essential amino acids (Gibco), and 10 mM HEPES (Gibco). MOC1 and MOC2 cells were cultured in IMDM (Lonza)/F-12K nutrient mixture at a 2:1 mixture with 5% FBS, 5 ng/ml EGF (EMD Millipore), 400 ng/ml hydrocortisone (Sigma), and […] insulin (Sigma). On receipt, each cell line was expanded, cryopreserved as low passage stocks, and routinely tested for mycoplasma. Cisplatin (Enzo Biosciences), paclitaxel (Sigma), and MMAE (Concortis) were reconstituted in DMSO. […] Clinical grade cetuximab (Erbitux, Lilly Medical) was obtained from UCSD Moores Cancer Center Pharmacy.
Cells were plated in 96-well plates and exposed to a drug concentration range for 72 h. Alamar Blue was added to the cells and allowed to incubate for 2–4 h at 37 °C. Plates were analyzed using a plate reader with fluorescence measured at 560 nm. Fractional survival was normalized to untreated control cell fluorescent values. Drug IC50 was calculated using Prism software (GraphPad, La Jolla, CA). Cell viability, cytotoxicity and apoptosis were also measured by ApoTox-Glo Triplex Assay (Promega).
measured by Alamar Blue assay. For Alamar Blue assay cytotoxicity, we measured cell viability at 72 hr of […]

[2] = tested on: orthotopic oral 4MOSC1 tumors; experiment: Trimodal therapy: ACPP-MMAE, IR and anti-PD-1 antibody; assay type: in vivo, C57BL/6 mice; settings: Figure 5c; individual mice, one line per mouse
Text: Orthotopic tongue xenograft tumors were established in 6-week-old NOD SCID mice by injecting 150,000 CAL27 parental (WT) or PIK3CA H1047R-expressing cells. […] On the last day of tumor xenograft measurements, mice were euthanized, tongues resected, imaged, and fixed. […] IR was delivered as 2 parallel opposed fields.

[3] = tested on: B16 tumors; assay type: in vivo, C57BL/6 mice
Protocol: At harvest, tumors were isolated, minced, and re-suspended in FBS-free DMEM media supplemented with components of MACs tumor dissociation kit. Tissues were incubated for 15 min at 37 °C and mechanically digested using the gentle MACs Octo dissociator. Tissue suspensions were washed with fresh media and passed through a 100-µm strainer. Samples were split in half for immediate staining or stimulated with the Biolegend Cell Activation Cocktail (with Brefeldin A) for 3 h. Samples were washed with PBS and immediately processed for live/dead cell discrimination using BD LIVE/DEAD™ Fixable Blue Dead Cell Stain Kit. Cells were washed and stained for surface markers for 30 min at 4 °C. Intracellular staining was performed using the eBioscience FOXP3/Transcription Factor Buffer Set from Invitrogen and stained with intracellular antibodies. […] All antibodies were validated by the supplier. All flow cytometry data acquisition was done using BD LSRFortessa and analyzed using FlowJo software. Immune cells were identified by the following characteristics: cytotoxic T cells (CD45+Thy1.2+CD8+), helper T cells (CD45+Thy1.2+CD4+), NK cells (CD45+Thy1.2−NK1.1+).
(§1) FSC-A FSC-H SCC-H Live Dead-Blue
(§2) Representative flow cytometry plots to gate immune cells quantitated in Fig. 4a, b, 4d &
(§3) Supplementary Fig. 10b, c. b) Quantification of tumor immune cell identified by flow cytometry on
(§4) Tumors harvested on day 19 and immune cells characterized by flow cytometry. c) Tumor
(§5) Mice implanted with tumor
(§6) Source data are provided in Source Data file.

[4] = tested on: B16 tumors; design: species or system RAG1 KO mice; settings: mouse, in vivo
Protocol: as §1, §2, §3, §4
granzyme B expression. Characterized CD8+ T-cells were further gated for granzyme-B staining
(Clone:GB11). In addition, RNA levelsof tumor granzyme-B was analyzed by qPCR. For
as §5
Log-rank (Mantel-Cox) test.
Source data are provided in Source Data file. […]

[5] = tested on: B16 tumors; experiment: Subcutaneous tumor therapy with CD8 T cell depletion; assay type: in vivo, C57BL/6 mice; settings: MMAE conjugate + IR, anti-CD8 antibody 10 mg/kg vs control
Protocol: (§15) MOC1, B16, LL/2, and MC38 tumor cells were injected subcutaneously into the hindlimbs of 6-week-old female C57BL/6 albino mice in 100 µl of 1:1 Matrigel (BD) and PBS solution. Fractionated IR was delivered focally to the tumor-bearing hindlimbs (3 Gy to MC38 tumors and 5 Gy to LL/2 and B16 tumors) as indicated in figure legends using a PXI X-RAD 225 XL irradiator at maximal dose rate of 3 Gy/min with a beam-conditioning aluminum filter (Precision X-ray Irradiation). For RAG1 KO studies, 6-week-old female Rag1^tm1Mom mice were injected subcutaneously with tumor cells in their hindlimbs (Jackson Labs). For CD8 depletion studies, mice were i.p. injected with anti-CD8 (BioXCell #BE0117) at 10 mg/kg on days −6, −5 and −4 tumor cell implant and then weekly starting on day after tumor cells were injected or control antibody. […] Tumor volumes were measured and calculated using the formula as ½ * length * width^2. Mice were sacrificed when tumor volume reached >1500 mm^3, maximal tumor volume approved on our protocol for subcutaneous tumors.

[6] = tested on: B16 tumors; experiment: Subcutaneous tumor therapy, CDX3379-MMAE or CDX3379-MMAF with IR, mouse survival; assay type: in vivo, C57BL/6 mice
Protocol: as §15

[7] = tested on: CAL27 parental (WT) tumors; experiment: Orthotopic tongue tumor xenograft therapy; assay type: in vivo, human cells in NOD SCID mice; settings: single 2.5 nmole injection
Text: (§7) Orthotopic tongue xenograft tumors were established in 6-week-old NOD SCID mice by injecting 150,000 CAL27 parental (WT) or PIK3CA H1047R-expressing cells. […] On the last day of tumor xenograft measurements, mice were euthanized, tongues resected, imaged, and fixed. […] IR was delivered as 2 parallel opposed fields. […]
(§8) Tumor cells Ab/ADC Ab/ADC CDX3379-MMAE
(§9) Supplementary Figure 7: CDX3379-MMAE ADC efficacy in tumor xenografts.
(§10) CAL27 parental (WT) or HER3 resistant (PIK3CA H1047R) tumor xenografts established in murine tongues on day 0. a) On day 7, mice i.v. injected with 2.5 nmoles […]
(§11) On the last day of tumor measurement
(§12) (day 16 for WT, day 14 for PIK3CA H1047R tumors), tongues resected, fixed and sectioned. Tissues stained for Ki-67 (Abcam, ab16667) by IHC and counterstained with hematoxylin. Data is representative of 6 independent tumors per tumor cell line and treatment. b) Mice with orthotopic tongue CAL27 PIK3CA H1047R tumors were […]
(§13) MMAE ADC on day 6 and day 8 (n= 6 tumors/group). On the last day of tumor measurements, tongues were resected, fixed, longitudinally sectioned and H&E stained.
as §6
(§14) (also on this page, place not known: CAL27-WT CAL27-Resistant UntreatedCDX3379CDX3379 -MMAE 07142128 volume (mm3) Tumor tipTongue a)On i.v.injected)

[8] = tested on: CAL27 resistant (PIK3CA H1047R) tumors; experiment: Orthotopic tongue tumor xenograft therapy; assay type: in vivo, human cells in NOD SCID mice; settings: PIK3CA H1047R-expressing CAL27 orthotopic tongue tumors
Text: as §7, §8, §9, §10, §11, §12, §13, §6, §14

## CC[C@H](C)[C@@H]([C@@H](CC(=O)N1CCC[C@H]1[C@H](OC)[C@@H](C)C(=O)N[C@H](C)[C@@H](O)c1ccccc1)OC)N(C)C(=O)[C@@H](NC(=O)[C@@H](NC)C(C)C)C(C)C [MMAE, monomethyl auristatin E] (H-[NMeV]V[Dil][Dolaproine]-X1)
[1]; MOC1, 72 h drug exposure, Alamar Blue, one value per biological replicate, read-out: IC50 values
  pIC50: 8.10 and 8.06 and 8.08 and 8.02
[1]
  sensitivity in cell culture, Alamar Blue assay: sensitive

## cyclo(RGD)fc-MC-HN-peg8-e9-oPLGC(Me)AG-r9-c-(MC-VC-PABC-MMAE)-CONH2 [ACPP-MMAE]
[2]
  Mouse survival: status at the day given (Mouse dead = 1, Mouse alive = 0): 1
[3]; mouse, in vivo
  Flow cytometry, CD4+: 0.17 and 0.11
  Flow cytometry, CD45+: 9.46 and 7.71
  Flow cytometry, CD45 negative: 89.90 and 91.80
  Flow cytometry, NK cells: 0.17 and 0.11
[4]
  tumor control in RAG1 KO mice: did not appreciably increase tumor control in RAG1 KO mice compared to IR alone
[5]
  effect of CD8 T cell depletion on tumor control: abrogated durable tumor control

## CDX3379-MMAE: anti-HER3 antibody CDX3379 with 4 MMAE per antibody via MC-VC-PABC linker, labeled with Cy5
[1]
  sensitivity in cell culture, Alamar Blue assay: sensitive
[3]; B16 tumors, flow cytometry, drug + IR
  tumor CD8 T cell infiltration, with IR: significantly increased CD8 tumor cell infiltration
[3]; without IR, individual tumors
  Flow cytometry (Figure 4b): 3.89 and 16.51 and 9.62
[6]; B16, 2.5 nmoles ADC x 2 doses + IR 5 Gy x 3
  tumor control and survival, + IR: prolonged tumor control and survival; also recorded: superior to CDX3379-MMAF
[6]; with IR, individual mice, status at the day, Figure 3h
  Mouse survival, status: 1 and 0
[5]
  effect of CD8 T cell depletion on tumor control: significantly larger
[7]
  tumor growth (tumor volume, Ki-67): further enhanced
[8]
  tumor growth: significant growth delay
